According to patent US20250179059A1 (The Regents of the University of California, priority 2021, published 2025):
Read-outs that look alike come from different tables or passages of the source.

Experiments:
[1] = tested on: human SKM-1 acute myeloid leukemia cells; experiment: SKM-1 antiproliferation cell-based assay (ATPlite); details: Homo sapiens
How it was run: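 Log-phase cells in RPMI 1640/15% FBS were seeded at 34722 cells/mL and exposed for 4 days to nine-concentration DMSO serial dilutions in triplicate. Viability was read as ATP luminescence (ATPlite 1step), and IC50 values came from variable-slope non-linear regression.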

[2] = target: T1, human BRD4 bromodomain II (Homo sapiens, UniProt O60885); experiment: Bromodomain binding assay (AlphaScreen), BRD4 BDII
T1 construct: human BRD4 bromodomain II [based on Genbank NM_058243, residues 349-460]; host or cells: E. coli
How it was run: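 First, His6-tagged BRD4 bromodomain (BDI residues 44-170 or BDII residues 349-460) is incubated with compound for 30 min at room temperature. Next the biotinylated H4 peptide is added for 30 min, then donor and acceptor beads, with 60 min in the dark before AlphaScreen reading and IC50 fitting.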

[3] = SKM-1, 96 h, SKM-1 antiproliferation assay, 4 days, Table C2
[4] = AlphaScreen assay, Table C2, read-out: BRD4 BDII IC50
[5] = SKM-1, SKM-1 antiproliferation assay
[6] = BRD4 BDII AlphaScreen assay, read-out: BRD4 BD2 IC50

SMILES	GI50 [1, 3]	IC50 [2, 4]	GI50 [1, 5]	IC50 [2, 6]
CN1CC2(C1)CN(c1cc(-c3cc(F)cc(-c4ccc(-n5ccn(C)c5=O)c(Cl)c4)c3O)ccn1)C2 [Example 489, 1-(3-chloro-5′-fluoro-2′-hydroxy-3′-(2-(6-methyl-2,6-diazaspiro[3.3]heptan-2-yl)pyridin-4-yl)-[1,1′-biphenyl]-4-yl)-3-methyl-1H-imidazol-2(3H)-one]	0.3 to 30 nM	1 to 10 nM	–	–
Cn1ccn(-c2ccc(-c3cc(F)cc(-c4ccccc4N4CCNCC4)c3O)cc2Cl)c1=O [Example 870]	–	–	300 to 3000 nM	1 to 10 nM
Cn1ccn(-c2ccc(-c3cc(F)cc(-c4ccnc(N5CCN6C(=O)OC[C@@H]6C5)c4)c3O)cc2Cl)c1=O [Example 560, (S)-7-(4-(3′-chloro-5-fluoro-2-hydroxy-4′-(3-methyl-2-oxo-2,3-dihydro-1H-imidazol-1-yl)-[1,1′-biphenyl]-3-yl)pyridin-2-yl)tetrahydro-1H-oxazolo[3,4-a]pyrazin-3(5H)-one]	30 to 300 nM	1 to 10 nM	–	–
COc1ncc(-c2cc(F)cc(-c3ccc(-n4ccn(C)c4=O)c(Cl)c3)c2O)cc1N1CCN(C(C)(C)C)CC1 [Example 802, 1-(3′-(5-(4-(tert-butyl)piperazin-1-yl)-6-methoxypyridin-3-yl)-3-chloro-5′-fluoro-2′-hydroxy-[1,1′-biphenyl]-4-yl)-3-methyl-1,3-dihydro-2H-imidazol-2-one]	0.3 to 30 nM	0.01 to 1 nM	–	–
Cc1cc(-c2cncc(N3CCN[C@H](C)C3)c2)c(O)c(-c2ccc(-n3ccn(C)c3=O)c(F)c2)c1 [Example 545, (R)-1-(3-fluoro-2′-hydroxy-5′-methyl-3′-(5-(3-methylpiperazin-1-yl)pyridin-3-yl)-[1,1′-biphenyl]-4-yl)-3-methyl-1H-imidazol-2(3H)-one]	0.3 to 30 nM	0.01 to 1 nM	–	–
CC1(C)CCN(c2ccc(-c3cccc(-c4ccnc(N5CCNCC5)c4)c3O)cc2Cl)C1=O [Example 329, 1-(3-chloro-2′-hydroxy-3′-(2-(piperazin-1-yl)pyridin-4-yl)-[1,1′-biphenyl]-4-yl)-3,3-dimethylpyrrolidin-2-one]	300 to 3000 nM	> 100 nM	–	–
CN1CCN(c2ccc(-c3cccc(-c4ccnc(N5CC6(CNC6)C5)c4)c3O)cc2Cl)C1=O [Example 323, 1-(3′-(2-(2,6-diazaspiro[3.3]heptan-2-yl)pyridin-4-yl)-3-chloro-2′-hydroxy-[1,1′-biphenyl]-4-yl)-3-methylimidazolidin-2-one]	30 to 300 nM	1 to 10 nM	–	–
O=C1CCCN1c1ccc(-c2cc(F)cc(-c3ccnc(N4CC5(CNC5)C4)c3)c2O)cc1F [Example 285, 1-(3′-(2-(2,6-diazaspiro[3.3]heptan-2-yl)pyridin-4-yl)-3,5′-difluoro-2′-hydroxy-[1,1′-biphenyl]-4-yl)pyrrolidin-2-one]	300 to 3000 nM	10 to 100 nM	–	–
CN1CCN(c2ccc(-c3cc(F)cc(-c4ccc(=O)n(C5CCNCC5)c4)c3O)cc2Cl)C1=O [Example 477, 5-(3′-chloro-5-fluoro-2-hydroxy-4′-(3-methyl-2-oxoimidazolidin-1-yl)-[1,1′-biphenyl]-3-yl)-1-(piperidin-4-yl)pyridin-2(1H)-one]	30 to 300 nM	1 to 10 nM	–	–
CNc1ncc(-c2nc(C)cc(-c3ccc(-n4ccn(C)c4=O)c(Cl)c3)c2O)cc1N1CCC2(CCCN2C(C)C)C1 (centres unmarked) [Example 985, 1-(2-chloro-4-(3-hydroxy-5′-(1-isopropyl-1,7-diazaspiro[4.4]nonan-7-yl)-6-methyl-6′-(methylamino)-[2,3′-bipyridin]-4-yl)phenyl)-3-methyl-1H-imidazol-2(3H)-one]	–	–	0.3 to 30 nM	1 to 10 nM
O=C1CCCN1c1ccc(-c2cccc(-c3ccnc(N4CCNCC4)c3)c2O)cc1F [Example 238, 1-(3-fluoro-2′-hydroxy-3′-(2-(piperazin-1-yl)pyridin-4-yl)-[1,1′-biphenyl]-4-yl)pyrrolidin-2-one]	30 to 300 nM	1 to 10 nM	–	–
Cn1ccn(-c2ccc(-c3cc(F)cc(-c4ccc(OC5CCNCC5)nc4)c3O)cc2Cl)c1=O [Example 445, 1-(3-chloro-5′-fluoro-2′-hydroxy-3′-(6-(piperidin-4-yloxy)pyridin-3-yl)-[1,1′-biphenyl]-4-yl)-3-methyl-1H-imidazol-2(3H)-one]	300 to 3000 nM	1 to 10 nM	–	–

The remaining lines, values ahead:

GI50 [1, 3]	IC50 [2, 4]	GI50 [1, 5]	IC50 [2, 6]	SMILES
–	–	0.3 to 30 nM	1 to 10 nM	Cc1cc(-c2ccc(-n3ccn(C)c3=O)c(Cl)c2)c(O)c(-c2cnc(N)c(N3CCN(C(C)(C)C)CC3)c2)n1 [Example 962, 1-(4-(6′-amino-5′-(4-(tert-butyl)piperazin-1-yl)-3-hydroxy-6-methyl-[2,3′-bipyridin]-4-yl)-2-chlorophenyl)-3-methyl-1H-imidazol-2(3H)-one]
30 to 300 nM	1 to 10 nM	–	–	CN1CCN(c2ccc(-c3cc(F)cc(-c4cnc(NCCO)c(N5CCNCC5)c4)c3O)cc2Cl)C1=O [Example 405, 1-(3-chloro-5′-fluoro-2′-hydroxy-3′-(6-((2-hydroxyethyl)amino)-5-(piperazin-1-yl)pyridin-3-yl)-[1,1′-biphenyl]-4-yl)-3-methylimidazolidin-2-one]
0.3 to 30 nM	0.01 to 1 nM	–	–	CC(=O)N[C@]1(C)CCN(c2cncc(-c3cc(F)cc(-c4ccc(-n5ccn(C)c5=O)c(Cl)c4)c3O)c2)C1 [Example 793, (R)-N-(1-(5-(3′-chloro-5-fluoro-2-hydroxy-4′-(3-methyl-2-oxo-2,3-dihydro-1H-imidazol-1-yl)-[1,1′-biphenyl]-3-yl)pyridin-3-yl)-3-methylpyrrolidin-3-yl)acetamide]
30 to 300 nM	1 to 10 nM	–	–	CC1=CCN(c2ccc(-c3cccc(-c4ccnc(N5CCNCC5)c4)c3O)cc2Cl)C1=O [Example 356, 1-(3-chloro-2′-hydroxy-3′-(2-(piperazin-1-yl)pyridin-4-yl)-[1,1′-biphenyl]-4-yl)-3-methyl-1H-pyrrol-2(5H)-one]
–	–	0.3 to 30 nM	0.01 to 1 nM	COc1ncc(-c2cc(F)cc(-c3ccc(-n4ccn(C)c4=O)c(Cl)c3)c2O)cc1N1CC[C@]2(CCCN2C(C)C)C1 [Example 958, (R)-1-(3-chloro-5′-fluoro-2′-hydroxy-3′-(5-(1-isopropyl-1,7-diazaspiro[4.4]nonan-7-yl)-6-methoxypyridin-3-yl)-[1,1′-biphenyl]-4-yl)-3-methyl-1,3-dihydro-2H-imidazol-2-one]
0.3 to 30 nM	0.01 to 1 nM	–	–	Cn1ccn(-c2ccc(-c3cc(F)cc(-c4ccnc(N5CCC(C)(N)C5)c4)c3O)cc2Cl)c1=O (centres unmarked) [Example 686, 1-(3′-(2-(3-amino-3-methylpyrrolidin-1-yl)pyridin-4-yl)-3-chloro-5′-fluoro-2′-hydroxy-[1,1′-biphenyl]-4-yl)-3-methyl-1H-imidazol-2(3H)-one]
30 to 300 nM	1 to 10 nM	–	–	C[C@@H]1CN(c2cc(-c3cc(Cl)cc(-c4ccc(-n5ccn(C)c5=O)c(F)c4)c3O)ccn2)CCN1 [Example 538, (R)-1-(5′-chloro-3-fluoro-2′-hydroxy-3′-(2-(3-methylpiperazin-1-yl)pyridin-4-yl)-[1,1′-biphenyl]-4-yl)-3-methyl-1H-imidazol-2(3H)-one]
–	–	30 to 300 nM	10 to 100 nM	Cn1cc(-c2ccc(-n3ccn(C)c3=O)c(Cl)c2)c(O)c(-c2cccc(N3CCN(C(C)(C)C)CC3)c2)c1=O [Example 1018, 3-(3-(4-(tert-butyl)piperazin-1-yl)phenyl)-5-(3-chloro-4-(3-methyl-2-oxo-2,3-dihydro-1H-imidazol-1-yl)phenyl)-4-hydroxy-1-methylpyridin-2(1H)-one]
0.3 to 30 nM	0.01 to 1 nM	–	–	CC(C)N1CCN(c2cc(-c3cc(F)cc(-c4ccc(-n5ccn(C)c5=O)c(Cl)c4)c3O)cc3c2cnn3C)CC1 [Example 672, 1-(3-chloro-5′-fluoro-2′-hydroxy-3′-(4-(4-isopropylpiperazin-1-yl)-1-methyl-1H-indazol-6-yl)-[1,1′-biphenyl]-4-yl)-3-methyl-1H-imidazol-2(3H)-one]
30 to 300 nM	10 to 100 nM	–	–	CC(=O)Nc1ccc(-c2cccc(-c3cc(OC4CCC(O)CC4)nc(N4CCNCC4)c3)c2O)cc1F (centres unmarked) [Example 361, N-(3-fluoro-2′-hydroxy-3′-(2-((4-hydroxycyclohexyl)oxy)-6-(piperazin-1-yl)pyridin-4-yl)-[1,1′-biphenyl]-4-yl)acetamide]
0.3 to 30 nM	0.01 to 1 nM	–	–	Cn1cc(-c2cc(F)cc(-c3ccc(-n4ccn(C)c4=O)c(Cl)c3)c2O)cc(N2CCN(C(C)(C)C)CC2)c1=O [Example 668, 3-(4-(tert-butyl)piperazin-1-yl)-5-(3′-chloro-5-fluoro-2-hydroxy-4′-(3-methyl-2-oxo-2,3-dihydro-1H-imidazol-1-yl)-[1,1′-biphenyl]-3-yl)-1-methylpyridin-2(1H)-one]
–	–	300 to 3000 nM	> 100 nM	Cn1ccn(-c2ccc(-c3cc(F)cc(-c4cccc(N5CCN(C(C)(C)C)CC5)n4)c3O)cc2Cl)c1=O [Example 950, 1-(3′-(6-(4-(tert-butyl)piperazin-1-yl)pyridin-2-yl)-3-chloro-5′-fluoro-2′-hydroxy-[1,1′-biphenyl]-4-yl)-3-methyl-1H-imidazol-2(3H)-one]
30 to 300 nM	1 to 10 nM	–	–	Cc1cc(-c2ccnc(N3CCNCC3)c2)c(O)c(-c2ccc(N3CCN(C)C3=O)c(Cl)c2)c1 [Example 306, l-(3-chloro-2′-hydroxy-5′-methyl-3′-(2-(piperazin-1-yl)pyridin-4-yl)-[1,1'-biphenyl]-4-yl)-3-methylimidazolidin-2-one]
